Experimental data taken from US20110045102A1, “Cancer chemotherapy compositions comprising PI3K pathway modulators and triptolide” (priority 2005, published 2011).

What was measured:
[1] = test system: OCC1-SEAP ovarian cancer cells; test: Cell survival by DNA content of culture wells (Example II); type: cell-based, human; settings: 48 hours; triptolide 100 ng/ml, carboplatin 50 (FIG. 8 legend: mg/ml)
Description: Cell survival was assessed as the number of cells remaining in culture, following exposure to treatments. The DNA content of individual culture wells was used as an indication of cell number. Cells plated in 24 well culture plates were allowed to approach confluence (80%) in Ham's F-12 medium plus 10% BCS. Cultures were then incubated in DMEM, plus 0.1% BSA and 0.1% BCS, in the presence of vehicle control, carboplatin (0-100 μg/ml), Triptolide (100 ng/ml) or a combination of these for 24 to 96 hrs. Media aliquots were taken when appropriate for SEAP analysis. The DNA was measured fluorometrically, as described above, in Example I. Briefly, the fluorescence of an aliquot of sonicated cell suspension, into which SYBR Green I fluorescent dye (Molecular Probes, Eugene, Oreg.), had been incorporated was measured.

[2] = test system: OCC1-SEAP cells; test: OCC1-SEAP cell response to carboplatin in vitro (DNA per well, SEAP in medium); type: cell-based, human
Description: OCC1-SEAP-12 cells were grown in Ham's F-12 medium (Gibco) plus 10% calf serum then collected into Hank's balanced salt solution and counted for injection into nude mice. For in vitro assays OCC1-SEAP-12 cells were plated at sequential twofold dilutions and allowed to adhere to culture wells and incubated for 24 hours. Alternatively, OCC1-SEAP-12 cells were grown to 80% confluence in Ham's F-12 medium plus 10% calf serum. Cells were starved for 48 hours in DMEM plus 0.1% BSA and 0.1% calf serum. Experimental treatments were applied for 2 days in DMEM plus 0.1% BSA and 0.1% calf serum. At the end of the treatment period a sample of culture medium was taken for SEAP level determination. DNA assays were performed by discarding the remaining culture medium from over the cells, adding buffer solution, sonicating the cells in each well, and measuring the fluorescence of cell solution into which SYBR Green I fluorescent dye (Molecular Probes, Eugene, Oreg.) had been incorporated as previously described (Parrott and Skinner 1999).
(§1) Blood plasma and cell culture medium samples were assayed for SEAP activity using the Great EscAPe SEAP fluorescence detection kit (Clontech Laboratories, Palo Alto, Calif.). SEAP is secreted at a constant rate by transfected tumor cells and distributed throughout the body or into the culture medium. SEAP is heat stable, so any endogenous alkaline phosphatase activity in blood plasma is destroyed by heat treatment of the samples (65° C. for 30 minutes) during the assay. The SEAP enzyme in each sample acts on the substrate 4-methylumbelliferyl phosphate during a 1 hour incubation at room temperature to produce a fluorescent product with excitation and emission peaks at 360 and 449 nm, respectively. A fluorimeter is then used to measure SEAP activity. The intra-assay and inter-assay coefficients of variation were 2.5% and 18.8%, respectively. Blood plasma samples were diluted 1:100 prior to the assay to bring values within the linear range of the standard curve.

[3] = test system: OCC1-SEAP intraperitoneal tumors; test: Nude mouse intraperitoneal OCC1-SEAP tumor model, plasma SEAP (Example I); type: in vivo, athymic nude mice; settings: established tumors; carboplatin 60 mg/kg three times over 4 days
Description: Athymic nude mice (Nu/Nu; Charles River Laboratories, Wilmington, Mass.) weighing about 25 g were used for in vivo studies.
Three mice were injected intraperitoneally with 1×10^7 OCC1-SEAP-12 cells. The experimental treatments began after 1 week. […] Alternatively, four mice with well-developed tumors (2-4 weeks after injection) were treated with a high dose of carboplatin (60 mg/kg) three times over a period of 4 days. After death all visible intraperitoneal tumors were dissected out and weighed.
Blood samples were collected from saphenous vein lancings three times per week into heparinized capillary tubes. The capillary tubes were centrifuged and the plasma samples were frozen at −20° C. until the time of SEAP assay. Blood samples were taken for SEAP assay from the mice within 24 hours of death 2-3 weeks after intraperitoneal injection of OCC1-SEAP cells.
as §1

[4] = test system: OCC1-SEAP-12 cells; test: Growth assay, [3H] thymidine incorporation (Example III); type: cell-based, human; settings: 18h treatment
Description: Cell proliferation was analyzed by determining the amount of [^3H] thymidine incorporation Into newly synthesized DNA. The OCC1-SEAP-12 cells were plated in 24 well plates in Ham's F-12 medium plus 10% BCS and allowed to reach 50 to 70% confluence. Following a 48 hr serum starvation, the culture medium was changed to Dulbecco's Modified Eagle Medium (DMEM) plus 0.1% BSA and 0.1% BCS containing either vehicle control or carboplatin (0-100 μg/ml) alone, or in combination with LY294002 (0-20 μM). Treatments were removed after 18h and cells were incubated for 4 hr in medium containing 5 μCi/ml of [^3H] thymidine. Medium was removed and cells were disrupted by sonication in phosphate buffered saline (PBS). An aliquot of the sonicated solution of PBS was loaded onto a DEAE filtration plate (Millipore, Bedford, Mass.), and individual filters with bound DNA were collected for scintillation counting. Data was normalized to total DNA per well and was determined by a SYBR green fluorescent assay (Nilsson E E, Westfall S D, McDonald C, Ligon T, Sadler-Riggleman I, Skinner M K. An in vivo mouse reporter gene (human secreted alkaline phosphatase) model to monitor ovarian tumor growth and response to therapeutics. Cancer Chemother Pharmacol 2002; 49(2):93-100).

[5] = test system: Akt; test: Western blot for Akt phosphorylation (Example III); type: cell-based, human; settings: 6 hr and 24 hr; LY294002 10 (FIG. 18 legend: mM), carboplatin 50
Description: The OCC1-SEAP-12 cells were grown to 80% confluence. […] […] Total cell lysates were subjected to SDS polyacrylamide gel electrophoresis 9 page) and transferred to PVDF membranes (Millipore, Bedford, Mass.). Membranes were immunoblotted with antibodies to both the phosphorylated and non-phosphorylated forms of […] (Cell Signaling Technology, Beverly, Mass.), or alternatively, with antibodies to cleaved and full length caspase-3 (Cell Signaling Technology, Beverly, Mass.).

[6] = test system: OCC1-SEAP-12 cells; test: DNA laddering on agarose gel (Example III); type: cell-based, human; settings: 48 hr and 72 hr
Description: Following 48 hr to 72 hr treatment incubations, cells were suspended into culture medium and pelleted in tubes. DNA was isolated from collected cells using a Puregene™ DNA isolation kit (Gentra Systems, Minneapolis, Minn.). The quantity and purity of nucleic acid preparations were estimated by measuring the optical density of each sample A260/A280). DNA preparations (10 μg/well) were loaded onto 1.2% agarose gels and visualized with ethidium bromide stain.

[7] = test system: caspase-3; test: Western blot for active caspase-3 (Example II); type: cell-based, human; settings: carboplatin alone

## N.N.O=C([O-])C1(C(=O)[O-])CCC1.[Pt+2] [carboplatin]
[1]
  decrease in cell survival (μg DNA/ml) compared to control cultures: 30%
[2]; 60 micro g/ml carboplatin for 48 hours vs control
  normalized SEAP production (SEAP per amount of DNA per well): did not change
[2]; 60 micro g/ml carboplatin for 48 hours, control cells 11.1
  SEAP levels in culture medium: 3.9 ng per 25 micro liter
[2]; 60 micro g/ml carboplatin for 48 hours, control cells 58 micro g/ml
  DNA levels: 35 micro g/ml
[3]
  tumor burden by plasma SEAP levels: transiently decreased the tumor burden
[4]; 20 μg/ml carboplatin
  block of basal DNA synthesis: 51%
[4]; 50 μg/ml carboplatin
  block of basal DNA synthesis: 59.5%
[5]
  Akt phosphorylation: had not effect
[6]
  DNA laddering: observed
[7]
  time until caspase-3 is activated post-treatment: 48 h
